Key:
Details in all cases: incubation time: 72 h
HCC1599 [1] = test: drug sensitivity score (DSS), CellTox Green (DSS (AUC-based score)); higher = stronger drug effect (viability inhibition or cytotoxicity); extreme values may be limits of the assay
How it was run: (§1)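 The drug sensitivity score reflects the area under a fitted dose-response curve. To obtain it, breast cancer cells in 20 µl suspension were seeded into 384-well plates containing compound at 5 concentrations, 10-fold apart over a compound-specific 10,000-fold range, and incubated 72 h. CellTox Green fluorescence (485/520 nm) was read first and CellTiter-Glo luminescence second, after 10 min at room temperature. Each plate was normalised to 0.1 % DMSO and a positive kill control.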

MDA-MB-436 [2] = test: as above
How it was run: as §1

BT-549 [3] = test: as above
How it was run: as §1

MDA-MB-231 [4] = test: as above
How it was run: as §1

HCC1937 [5] = test: as above
How it was run: as §1

HCC1599 [6] = test: normalised viability (% of control), CellTiter-Blue; higher = more viable cells (about 100 = DMSO control)
How it was run: (§2)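 The reported quantity is normalised viability at a single listed concentration of the series. Compound in 5 µl medium was pre-dispensed into 384-well plates and 20 µl of breast cancer cell suspension was added for 72 h. A 2 h, 37 °C CellTiter-Blue step (2.5 µl) preceded fluorescence reading at 560/590 nm, and plates were normalised to vehicle (100) and a positive kill control (0).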

MDA-MB-453 = test: as above
How it was run: as §2

HCC1143 = test: as above
How it was run: as §2

MDA-MB-436 [7] = test: as above
How it was run: as §2

MDA-MB-468 = test: as above
How it was run: as §2

CAL-148 = test: as above
How it was run: as §2

BT-474 = test: as above
How it was run: as §2

CAL-51 = test: as above
How it was run: as §2

BT-549 [8] = test: as above
How it was run: as §2

CAL-120 = test: as above
How it was run: as §2

SK-BR-3 = test: as above
How it was run: as §2

CAL-85-1 = test: as above
How it was run: as §2

MDA-MB-231 [9] = test: as above
How it was run: as §2

DU-4475 = test: as above
How it was run: as §2

HDQ-P1 [10] = test: as above
How it was run: as §2

MFM-223 = test: as above
How it was run: as §2

Hs578T = test: as above
How it was run: as §2

HCC1937 [11] = test: as above
How it was run: as §2

HDQ-P1 [12] = test: drug sensitivity score (DSS), CellTox Green (DSS (AUC-based score)); higher = stronger drug effect (viability inhibition or cytotoxicity); extreme values may be limits of the assay
How it was run: as §1

For `O=S(=O)(c1cccc2cnccc12)N1CCCNCC1` [Fasudil], the drug sensitivity score (HCC1599 [1]) was 0, the drug sensitivity score (MDA-MB-436 [2]) was 0 and the drug sensitivity score (BT-549 [3]) was 0. The drug sensitivity score (MDA-MB-231 [4]) was 2.62, the drug sensitivity score (HCC1937 [5]) was 0 and the normalised viability (HCC1599 [6]; 10 nM) was 99.9%. It also gave a normalised viability (HCC1599 [6]; 1000 nM) of 102%, a normalised viability (HCC1599 [6]; 10000 nM) of 117% and a normalised viability (MDA-MB-453; 3 nM) of 112%. The normalised viability (MDA-MB-453; 30 nM) was 116%, the normalised viability (MDA-MB-453; 100 nM) was 109% and the normalised viability (HCC1143; 10 nM) was 85.1%. It also gave a normalised viability (HCC1143; 1000 nM) of 96.2%, a normalised viability (HCC1143; 10000 nM) of 80.2% and a normalised viability (MDA-MB-436 [7]; 10 nM) of 83.5%. For the same compound, the normalised viability (MDA-MB-436 [7]; 1000 nM) was 108%, the normalised viability (MDA-MB-436 [7]; 10000 nM) was 107% and the normalised viability (MDA-MB-468; 10 nM) was 106%. The normalised viability (MDA-MB-468; 1000 nM) was 110%, the normalised viability (MDA-MB-468; 10000 nM) was 105% and the normalised viability (CAL-148; 3 nM) was 81%. The normalised viability (CAL-148; 30 nM) was 90.1%, the normalised viability (CAL-148; 100 nM) was 90.2% and the normalised viability (BT-474; 10 nM) was 112%. For the same compound, the normalised viability (BT-474; 1000 nM) was 112%, the normalised viability (BT-474; 10000 nM) was 126% and the normalised viability (CAL-51; 3 nM) was 118%. For the same compound, the normalised viability (CAL-51; 30 nM) was 108%, the normalised viability (CAL-51; 100 nM) was 116% and the normalised viability (BT-549 [8]; 10 nM) was 93.3%. For the same compound, the normalised viability (BT-549 [8]; 1000 nM) was 95.2%, the normalised viability (BT-549 [8]; 10000 nM) was 107% and the normalised viability (CAL-120; 10 nM) was 87.9%. For the same compound, the normalised viability (CAL-120; 1000 nM) was 84.4%, the normalised viability (CAL-120; 10000 nM) was 92% and the normalised viability (SK-BR-3; 10 nM) was 94.7%. The normalised viability (SK-BR-3; 1000 nM) was 95.7%, the normalised viability (SK-BR-3; 10000 nM) was 109% and the normalised viability (CAL-85-1; 3 nM) was 96.6%. For the same compound, the normalised viability (CAL-85-1; 30 nM) was 90.4%, the normalised viability (CAL-85-1; 100 nM) was 93.3% and the normalised viability (MDA-MB-231 [9]; 10 nM) was 98.8%. The normalised viability (MDA-MB-231 [9]; 1000 nM) was 110%, the normalised viability (MDA-MB-231 [9]; 10000 nM) was 127% and the normalised viability (DU-4475; 3 nM) was 100%. The normalised viability (DU-4475; 30 nM) was 109%, the normalised viability (DU-4475; 100 nM) was 101% and the normalised viability (HDQ-P1 [10]; 3 nM) was 111%. It also gave a normalised viability (HDQ-P1 [10]; 30 nM) of 99%, a normalised viability (HDQ-P1 [10]; 100 nM) of 117% and a normalised viability (MFM-223; 10 nM) of 102%. It also gave a normalised viability (MFM-223; 1000 nM) of 89%, a normalised viability (MFM-223; 10000 nM) of 77.7% and a normalised viability (Hs578T; 10 nM) of 98.4%. For the same compound, the normalised viability (Hs578T; 1000 nM) was 114%, the normalised viability (Hs578T; 10000 nM) was 116% and the normalised viability (HCC1937 [11]; 10 nM) was 122%. It also gave a normalised viability (HCC1937 [11]; 1000 nM) of 105% and a normalised viability (HCC1937 [11]; 10000 nM) of 90.6%.

In the case of `Cc1cccc(-c2nn3c(c2-c2ccnc4ccc(C(N)=O)cc24)CCC3)n1` [Galunisertib], the drug sensitivity score (HCC1599 [1]) is reported as 0, the drug sensitivity score (MDA-MB-436 [2]) is reported as 0.892 and the drug sensitivity score (BT-549 [3]) is reported as 0. The drug sensitivity score (MDA-MB-231 [4]) was 0, the drug sensitivity score (HDQ-P1 [12]) was 0 and the drug sensitivity score (HCC1937 [5]) was 0.

Compound `CS(=O)(=O)N1CCN(Cc2cc3nc(-c4cccc5[nH]ncc45)nc(N4CCOCC4)c3s2)CC1` [Pictilisib] has a drug sensitivity score (HCC1599 [1]) of 0, a drug sensitivity score (MDA-MB-436 [2]) of 0 and a drug sensitivity score (BT-549 [3]) of 0. For the same compound, the drug sensitivity score (MDA-MB-231 [4]) was 0, the drug sensitivity score (HDQ-P1 [12]) was 0 and the drug sensitivity score (HCC1937 [5]) was 0.

With `O=C(NC[C@H](O)CO)c1ccncc1Nc1ccc(I)cc1F` [Pimasertib] the drug sensitivity score (HCC1599 [1]) was 0, the drug sensitivity score (MDA-MB-436 [2]) was 0 and the drug sensitivity score (BT-549 [3]) was 0. For the same compound, the drug sensitivity score (MDA-MB-231 [4]) was 12.2, the drug sensitivity score (HDQ-P1 [12]) was 0 and the drug sensitivity score (HCC1937 [5]) was 0.

`C[C@]12C=CC(=O)C=C1CC[C@@H]1[C@@H]2[C@@H](O)C[C@@]2(C)[C@H]1CC[C@]2(O)C(=O)CO` [Prednisolone] gave a drug sensitivity score (HCC1599 [1]) of 0, a drug sensitivity score (BT-549 [3]) of 0 and a drug sensitivity score (MDA-MB-231 [4]) of 0. It also gave a drug sensitivity score (HDQ-P1 [12]) of 0.861, a drug sensitivity score (HCC1937 [5]) of 0 and a normalised viability (HCC1599 [6]; 10 nM) of 111%. It also gave a normalised viability (HCC1599 [6]; 1000 nM) of 92.2%, a normalised viability (HCC1599 [6]; 10000 nM) of 84.9% and a normalised viability (MDA-MB-453; 3 nM) of 107%. For the same compound, the normalised viability (MDA-MB-453; 30 nM) was 106%, the normalised viability (MDA-MB-453; 100 nM) was 95.5% and the normalised viability (HCC1143; 10 nM) was 98%. It also gave a normalised viability (HCC1143; 1000 nM) of 87.9%, a normalised viability (HCC1143; 10000 nM) of 96.3% and a normalised viability (MDA-MB-436 [7]; 10 nM) of 82.4%. The normalised viability (MDA-MB-436 [7]; 1000 nM) was 73.5%, the normalised viability (MDA-MB-436 [7]; 10000 nM) was 108% and the normalised viability (MDA-MB-468; 10 nM) was 102%. The normalised viability (MDA-MB-468; 1000 nM) was 115%, the normalised viability (MDA-MB-468; 10000 nM) was 101% and the normalised viability (CAL-148; 3 nM) was 93.8%. The normalised viability (CAL-148; 30 nM) was 118%, the normalised viability (CAL-148; 100 nM) was 107% and the normalised viability (BT-474; 10 nM) was 125%. It also gave a normalised viability (BT-474; 1000 nM) of 98.8%, a normalised viability (BT-474; 10000 nM) of 100% and a normalised viability (CAL-51; 3 nM) of 102%. It also gave a normalised viability (CAL-51; 30 nM) of 98.3%, a normalised viability (CAL-51; 100 nM) of 98.4% and a normalised viability (BT-549 [8]; 10 nM) of 111%. For the same compound, the normalised viability (BT-549 [8]; 1000 nM) was 92.2%, the normalised viability (BT-549 [8]; 10000 nM) was 105% and the normalised viability (CAL-120; 10 nM) was 87.5%. The normalised viability (CAL-120; 1000 nM) was 73.7%, the normalised viability (CAL-120; 10000 nM) was 86.8% and the normalised viability (SK-BR-3; 10 nM) was 114%. It also gave a normalised viability (SK-BR-3; 1000 nM) of 101%, a normalised viability (SK-BR-3; 10000 nM) of 89.3% and a normalised viability (CAL-85-1; 3 nM) of 101%. The normalised viability (CAL-85-1; 30 nM) was 105%, the normalised viability (CAL-85-1; 100 nM) was 119% and the normalised viability (MDA-MB-231 [9]; 10 nM) was 113%. For the same compound, the normalised viability (MDA-MB-231 [9]; 1000 nM) was 129%, the normalised viability (MDA-MB-231 [9]; 10000 nM) was 117% and the normalised viability (DU-4475; 3 nM) was 107%. It also gave a normalised viability (DU-4475; 30 nM) of 116%, a normalised viability (DU-4475; 100 nM) of 98.1% and a normalised viability (HDQ-P1 [10]; 3 nM) of 112%. It also gave a normalised viability (HDQ-P1 [10]; 30 nM) of 124%, a normalised viability (HDQ-P1 [10]; 100 nM) of 108% and a normalised viability (MFM-223; 10 nM) of 95.7%. The normalised viability (MFM-223; 1000 nM) was 100%, the normalised viability (MFM-223; 10000 nM) was 96.9% and the normalised viability (Hs578T; 10 nM) was 111%. It also gave a normalised viability (Hs578T; 1000 nM) of 107%, a normalised viability (Hs578T; 10000 nM) of 107% and a normalised viability (HCC1937 [11]; 10 nM) of 91.7%. For the same compound, the normalised viability (HCC1937 [11]; 1000 nM) was 108% and the normalised viability (HCC1937 [11]; 10000 nM) was 99.1%.

`Cn1cc(CNCC2CCN(c3ncc(C(=O)NO)cn3)CC2)c2ccccc21` [Quisinostat] was tested, and the drug sensitivity score (HCC1599 [1]) was 1.48, the drug sensitivity score (MDA-MB-436 [2]) was 0 and the drug sensitivity score (BT-549 [3]) was 0. For the same compound, the drug sensitivity score (MDA-MB-231 [4]) was 13.6, the drug sensitivity score (HDQ-P1 [12]) was 1.56 and the drug sensitivity score (HCC1937 [5]) was 0.

Compound `CC(C)N(CCCNC(=O)Nc1ccc(C(C)(C)C)cc1)C[C@H]1O[C@@H](n2cc(Br)c3c(N)ncnc32)[C@H](O)[C@@H]1O` [SGC0946] has a drug sensitivity score (HCC1599 [1]) of 0, a drug sensitivity score (MDA-MB-436 [2]) of 0 and a drug sensitivity score (BT-549 [3]) of 0. It also gave a drug sensitivity score (MDA-MB-231 [4]) of 0, a drug sensitivity score (HDQ-P1 [12]) of 0 and a drug sensitivity score (HCC1937 [5]) of 0.
